Assay results as given in US20110152166A1, “METHOD OF MODULATION OF PROTEIN PHOSPHORYLATION-DEPENDENT CONFORMATIONAL TRANSITIONS WITH LOW MOLECULAR WEIGHT COMPOUNDS” (priority 2006, published 2011).
Ends that are not written are not given here.

Columns and labels:
PDK1 50-360 = biological target: T1, PDK1 50-360 (Homo sapiens, UniProt O15530); experiment: Isothermal Titration Calorimetry; type: binding; details: ITC
T1 construct: the catalytic domain of PDK1 (50-359) produced in SF9 insect cells; His-tag (pFastbac-HT, TEV site) (N, cleaved yes); made in house; host or cells: Sf9 insect cells (baculovirus, pFastbac-HT)
T1 sequence (O15530 50-359): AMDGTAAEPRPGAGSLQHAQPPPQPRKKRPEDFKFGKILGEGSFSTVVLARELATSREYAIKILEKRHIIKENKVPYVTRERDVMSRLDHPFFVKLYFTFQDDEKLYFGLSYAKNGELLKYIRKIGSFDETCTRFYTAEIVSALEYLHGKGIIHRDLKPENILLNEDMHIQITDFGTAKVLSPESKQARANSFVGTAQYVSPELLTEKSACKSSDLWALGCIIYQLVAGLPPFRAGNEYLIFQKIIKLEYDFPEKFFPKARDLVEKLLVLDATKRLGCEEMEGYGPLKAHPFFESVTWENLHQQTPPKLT
Protocol: FIG. 8—Characterization of compound 1 interaction with PDK1 50-360 by Isothermal Titration Calorimetry (ITC). Upper panel, raw data of the titration of compound 1 into PDK1 50-360. Lower panel, integrated heats of injection, corrected for the heat of dilution, with the solid line corresponding to the best fit of the data using Origin™ software. The best fit corresponded to a model with one type of sites. […] The calorimetric titration was performed using the VP-ITC instrument from MicroCal Inc. (Northampton, Mass.) as previously described (Schaeffer et al., 2002) with the following modifications. PDK1 and compound 1 were prepared in 50 mM Tris-HCl (pH 7.5), 175 mM NaCl, 1 mM DTT and 3% DMSO. Titration was performed by 30 successive injections (10 μl) of compound 1 (0.9 mM) into a 1.41 ml reaction cell containing PDK1 50-360 ([…]). Raw calorimetric data were corrected for the heat of dilution, and analyzed using the program Origin™ provided by the manufacturer. Binding stoichiometry, enthalpy and equilibrium dissociation constants were determined by fitting corrected data to a model with a single binding site.

PDK1 = biological target: T2, PDK1 (Homo sapiens, UniProt O15530); experiment: PDK1 thermal denaturation; details: data not shown
T2 sequence (O15530 1-556): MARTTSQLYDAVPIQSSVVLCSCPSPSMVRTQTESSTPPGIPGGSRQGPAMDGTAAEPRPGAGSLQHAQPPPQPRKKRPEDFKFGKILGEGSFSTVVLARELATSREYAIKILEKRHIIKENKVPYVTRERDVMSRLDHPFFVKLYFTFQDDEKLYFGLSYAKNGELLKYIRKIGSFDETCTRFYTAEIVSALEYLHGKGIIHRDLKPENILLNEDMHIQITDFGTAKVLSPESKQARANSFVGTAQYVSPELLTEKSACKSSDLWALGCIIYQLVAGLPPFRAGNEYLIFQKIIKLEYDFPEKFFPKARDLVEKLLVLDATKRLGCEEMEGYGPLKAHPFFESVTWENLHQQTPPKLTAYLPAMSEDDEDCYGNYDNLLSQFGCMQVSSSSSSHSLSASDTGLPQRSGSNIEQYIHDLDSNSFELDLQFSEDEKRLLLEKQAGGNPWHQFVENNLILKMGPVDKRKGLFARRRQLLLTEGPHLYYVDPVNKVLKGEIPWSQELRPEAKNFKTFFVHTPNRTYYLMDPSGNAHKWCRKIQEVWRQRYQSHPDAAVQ

[1] = biological target: T3, PDK1 catalytic domain (50-360) (Homo sapiens, UniProt O15530); experiment: TNP-ATP/PDK1 fluorescence, conformation of the ATP binding site
T3 construct: the catalytic domain of PDK1 (50-359) produced in SF9 insect cells; His-tag (N, cleaved yes); made in house; host or cells: SF9 insect cells (baculovirus)
Protocol: FIG. 5—Modulation of PDK1 conformation by phosphopeptides and small compounds. Effect of P-HM-polypeptides and compound 1 on the emission fluorescence of trinitrophenyl-ATP (TNP-ATP)/PDK1. The fluorescence emission spectra from TNP-ATP were recorded in the presence or absence of P-HM-polypeptides, PIFtide and compound 1. (A) Effect of P-HM-RSK (65 μM) on the fluorescence by TNP-ATP. (B) Effect of compound 1 on the fluorescence emission from TNP-ATP. Fluorescence intensities are expressed as %. […] The effect of P-HM-PKB was identical to that by P-HM-RSK.
The activation of PDK1 by P-HM-polypeptides and small compounds is due to a change in the conformation of the enzyme. We probed the conformation of the ATP binding site in PDK1 by scanning the steady-state fluorescence of TNP-ATP/PDK1, in the presence or absence of P-HM-polypeptides, PIFtide, or small molecular weight compounds. Data were obtained in a Varian Cary Eclipse spectrofluorometer (excitation γ=479 nm; emission scanning, γ=500-600 nm; excitation slit=10 nm; emission slit=10 nm) at a rate of 200 nm/min, with 150 datapoints/100 nm scanning and 0.3 s averaging time. […] Non-phosphorylated HM-polypeptides increased the fluorescence intensity of TNP-ATP in the absence of PDK1 and were not used in the study. […]

N (binding stoichiometry) (PDK1 50-360)	TΔS (PDK1 50-360)	ΔH (PDK1 50-360)	Kd (PDK1 50-360; one type of sites, pH 7.5, 3% DMSO)	stabilization of PDK1 to thermal denaturation (in words) (PDK1)	effect on TNP-ATP/PDK1 fluorescence (in words) ([1]; 40 μM TNP-ATP, 15 μM PDK1)	Emax ([1]; at 10 times the value of its Kd for PDK1, read-out: maximal effect on TNP-ATP fluorescence intensity)	Compound
1.0 ± 0.1	4.3 ± 0.2 kcal/mol	−2.1+0.1 kcal·mol^−1	18 µM	did not stabilize			O=C(O)CSC(CC(=O)c1ccc(Cl)cc1)c1ccccc1 (stereo not shown) [Compound 1]
					decreased the intensity	65%	REPRILSEEEQEMFRDFDYIADWC [PIFtide, reference compound]
